Source: patent publication US5686424A, “2-oxoethyl derivatives as immunosuppressants” (Miles Inc., priority 1995, dated 1997)
pIC50: −log10 of the molar value.

Key:
FKBP = FKBP (Homo sapiens, UniProt P62942); assay: PPIase Inhibition Assay; type: biochemical; details: concentration of inhibitor required for 50% inhibition of enzyme activity; FKBP, substrate Succinyl-Ala-Phe-Pro-Phe-para-nitroanilide; TABLE I
Procedure, shortened: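 Chymotrypsin-coupled isomerization of Succinyl-Ala-Phe-Pro-Phe-para-nitroanilide by FKBP in ice-cold 25 mM HEPES pH 7.8, 100 mM NaCl, compound in DMSO. A390 followed 90 sec; first-order rate constants give % activity remaining after subtracting uncatalyzed rate; IC50 by linear regression of V-/V+ versus concentration.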

human T-cells = assay: Suppression of Human T-Cell Proliferation Assay (PHA-stimulated, [3H]-thymidine incorporation); type: cell-based; details: concentration inhibiting [3H]-thymidine incorporation of PHA-stimulated T-cells by 50%, 72 hours; TABLE 2; read-out: IC50
Procedure, shortened: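 SRBC-rosette-purified human peripheral T-cells stimulated with PHA-M (40 μg/ml stock) and compound dilutions, in duplicate, for 72 h at 37° C. Proliferation measured by [3H]-thymidine incorporation during the final 6 h, read by liquid scintillation counting.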

NF-AT = NF-AT Inhibition Assay Directed β-Galactosidase Expression in FGL-5 cells; type: cell-based; details: 50% inhibition of NF-AT directed β-galactosidase activity in FGL-5 cells stimulated with phorbol dibutyrate and ionomycin; TABLE 3
Protocol: 3) NF-AT Assay Stimulation of T-cells leads to the appearance of several transcription factors, including one designated "NF-AT". These factors are involved in regulation of gene expression required for immunologic activation. Some of these transcription factors appear to have functions in a wide variety of cell types. By contrast, NF-AT is found primarily in T-cells and its role is restricted to early gene activation. […] Inhibition of NF-AT activity is measured using FGL-5 cells. FGL-5 is a cloned line of stably transfected Jurkat T-cells that contain two construct in which three tandem copies of the NF-AT DNA binding site direct transcription of both murine CD8 and the lacZ gene, encoding β-galactosidase ([…] et al., 1990, Genes & Development 4:1823). When these cells are stimulated with phorbol esters which activate protein kinase C and calcium ionophore to raise the intracellular calcium concentration, transcriptionally active NF-AT is produced. In T-cells, this normally leads to the expression of IL-2, T-cell growth factor. However, in FGL-5 cells NF-AT activation leads to the production of β-galactosidase which can be detected using an appropriate substrate. […] NF-AT Inhibition Assay Directed β-Galactosidase Expression This assay was performed essentially as described (Bierer et al., 1990, Proc. Natl. Acad. Sci. 87:9231). […] The assays were done with exponentially growing cells whose density was not greater than 0.5 million cells/ml. The cells were resuspended to 3 million cells/ml in medium and 0.1 ml was added to wells of a 96-well plate. The compounds of the present invention were dissolved in either ethanol or dimethylsulfoxide at 10 mM and […] of various dilutions in medium were added to cells in duplicate wells. Treatment controls consisted of duplicate wells containing 0.5 ml/well of either medium, ethanol or dimethylsulfoxide. The ethanol and dimethyl sulfoxide were at the same concentration as was used for the compounds. […] Phorbol dibutyrate (Sigma) and Ionomycin (Calbiochem) were dissolved at 50 μg/ml and 2 mM, respectively and stored at -70° C. […] For unstimulated cell controls, 0.5 ml/well of medium was added to duplicate wells. The plates were incubated overnight (16-18 hours) at 37° C. in a humidified atmosphere of 5% CO2 and air. β-galactosidase activity was measured as the fluorescence generated by the cleavage of 4-methyl umbelliferyl-β-D-galactoside (Sigma) at the β-galactoside bond. After overnight incubation, the cells were centrifuged at 500×g for 3 minutes in the 96-well plates and washed 3 times with PBS. […] The percent inhibition by each concentration of the compounds was calculated as: […]

FKBP, sequence (P62942 whole entry): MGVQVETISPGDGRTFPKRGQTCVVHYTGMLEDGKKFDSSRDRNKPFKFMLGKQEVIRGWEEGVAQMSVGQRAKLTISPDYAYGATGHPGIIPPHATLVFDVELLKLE

Structure (SMILES) | pIC50 (FKBP) | pIC50 (human T-cells) | pIC50 (NF-AT)
O=C(CNC(=O)[C@@H]1CCCN1CC(=O)C12CC3CC(CC(C3)C1)C2)NCc1ccccc1 [Example 55, Glycine, N-[1-(2-Adamantan-1-yl-2-Oxoethyl)-L-Prolyl] Benzylamide] | 5.29 | 4.89 | 4.36
CC(C)[C@H](NC(=O)[C@@H]1CCCN1CC(=O)C12CC3CC(CC(C3)C1)C2)C(=O)NCc1ccccc1 [Example 56, L-Valine, N-[1-(2-Adamantan-1-yl-2-Oxoethyl)-L-Prolyl] Benzylamide] | 5.92 | 5.10 | 4.14
CC(C)C[C@H](NC(=O)[C@@H]1CCCN1CC(=O)C12CC3CC(CC(C3)C1)C2)C(=O)NCc1ccccc1 [Example 57, L-Leucine, N-[1-(2-Adamantan-1-yl-2-Oxoethyl)-L-Prolyl] Benzylamide] | 6.66 | 5.10 | < 4.00
O=C(NCc1ccccc1)[C@H](Cc1ccccc1)NC(=O)[C@@H]1CCCN1CC(=O)C12CC3CC(CC(C3)C1)C2 [Example 58, L-Phenylalanine, N-[1-(2-Adamantan-1-yl-2-Oxoethyl)-L-Prolyl] Benzylamide] | 5.64 | 5.15 | 4.70
CCC[C@H](NC(=O)[C@@H]1CCCN1CC(=O)C12CC3CC(CC(C3)C1)C2)C(=O)NCc1ccccc1 [Example 59, L-Norvaline, N-[1-(2-Adamantan-1-yl-2-Oxoethyl)-L-Prolyl] Benzylamide] | 6.15 | 5.00 | < 4.00
CCCC[C@H](NC(=O)[C@@H]1CCCN1CC(=O)C12CC3CC(CC(C3)C1)C2)C(=O)NCc1ccccc1 [Example 60, L-Norleucine, N-[1-(2-Adamantan-1-yl-2-Oxoethyl)-L-Prolyl] Benzylamide] | 6.40 | 4.80 | 4.74
NC(=O)C[C@H](NC(=O)[C@@H]1CCCN1CC(=O)C12CC3CC(CC(C3)C1)C2)C(=O)NCc1ccccc1 [Example 61, L-Asparagine, N-[1-(2-Adamantan-1-yl-2-Oxoethyl)-L-Prolyl] Benzylamide] | > 5.30 | 4.77 | < 4.00
O=C(NCc1ccccc1)[C@H](CC1CCCCC1)NC(=O)[C@@H]1CCCN1CC(=O)C12CC3CC(CC(C3)C1)C2 [Example 64, L-Cyclohexylalanine, N-[1-(2-Adamantan-1-yl-2-Oxoethyl)-L-Prolyl] Benzylamide] | > 5.30 | 5.15 | 4.80
CC[C@H](C)[C@H](NC(=O)[C@@H]1CCCN1CC(=O)C12CC3CC(CC(C3)C1)C2)C(=O)N[C@@H](C)c1ccccc1 [Example 65, L-Isoleucine, N-[1-(2-Adamantan-1-yl-2-Oxoethyl)-L-Prolyl] alpha-(S)-methylbenzylamide] | 7.00 | 5.10 | 4.77
CC[C@H](C)[C@H](NC(=O)[C@@H]1CCCN1CC(=O)C12CC3CC(CC(C3)C1)C2)C(=O)NCc1ccncc1 [Example 67, L-Isoleucine, N-[1-(2-Adamantan-1-yl-2-Oxoethyl)-L-Prolyl] Pyridin-4-ylmethylamide] | 6.15 | 4.72 | < 4.00
CC[C@H](C)[C@H](NC(=O)[C@@H]1CCCN1CC(=O)C12CC3CC(CC(C3)C1)C2)C(=O)NCc1ccccn1 [Example 68, L-Isoleucine, N-[1-(2-Adamantan-1-yl-2-Oxoethyl)-L-Prolyl] Pyridin-2-ylmethylamide] | 6.40 | 4.80 | 4.22
CC[C@H](C)[C@H](NC(=O)[C@@H]1CCCN1CC(=O)C12CC3CC(CC(C3)C1)C2)C(=O)NCc1ccc(OC)cc1 [Example 69, L-Isoleucine, N-[1-(2-Adamantan-1-yl-2-Oxoethyl)-L-Prolyl] 4-methoxybenzylamide] | 6.70 | 5.10 | 4.80
CC[C@H](C)[C@H](NC(=O)[C@@H]1CCCN1CC(=O)C12CC3CC(CC(C3)C1)C2)C(=O)NCc1ccccc1OC [Example 70, L-Isoleucine, N-[1-(2-Adamantan-1-yl-2-Oxoethyl)-L-Prolyl] 2-methoxybenzylamide] | 6.19 | 5.15 | 4.80
CC[C@H](C)[C@H](NC(=O)[C@@H]1CCCN1CC(=O)OCC=C(C)CCC=C(C)CCC=C(C)C)C(=O)NCc1ccccc1 [Example 83, L-Isoleucine, N-[1-(2-[1-(3,7,11-Trimethyldodeca-2,6,10-trien-1-ol)]-2-Oxoethyl)-L-Proline] Benzylamide] | < 5.30 | 5.15 | 4.92
CC[C@H](C)[C@H](NC(=O)[C@@H]1CCCN1CC(=O)OCC=Cc1ccccc1)C(=O)NCc1ccccc1 [Example 84, L-Isoleucine, N-[1-(2-(3-Phenyl-2-Propen-1-Oxy)-2-Oxoethyl)-L-Prolyl] Benzylamide] | 5.49 | < 4.00 | < 4.00
CC[C@H](C)[C@H](NC(=O)[C@@H]1CCCN1CC(=O)OCC=C(C)c1ccccc1)C(=O)NCc1ccccc1 [Example 85, L-Isoleucine, N-[1-(2-(3-Phenyl-3-Methyl-2-Propen-1-Oxy)-2-Oxoethyl)-L-Prolyl] Benzylamide] | > 5.30 | 4.66 | 4.89
CCC(OC(=O)CN1CCC[C@H]1C(=O)N[C@H](C(=O)NCc1ccccc1)[C@@H](C)CC)c1ccccc1 (stereo partly drawn) [Example 86, L-Isoleucine, N-[1-(2-(1-Phenylpropoxy)-2-Oxoethyl)-L-Prolyl] Benzylamide] | 6.06 | 4.66 | 4.89
CC[C@H](C)[C@H](NC(=O)[C@@H]1CCCN1CC(=O)OCC1(c2ccccc2)CCCCC1)C(=O)NCc1ccccc1 [Example 87, L-Isoleucine, N-[1-(2-(1-Phenyl-1-Cyclohexylmethoxy)-2-Oxoethyl)-L-Prolyl] Benzylamide] | < 5.30 | 5.10 | 5.22
CC[C@H](C)[C@H](NC(=O)[C@@H]1CCCN1CC(=O)OC(CN1CCOCC1)c1ccccc1)C(=O)NCc1ccccc1 (stereo partly drawn) [Example 88, L-Isoleucine, N-[1-(2-(1-Phenyl-2-(4-Morpholino)Ethoxy)-2-Oxoethyl)-L-Prolyl] Benzylamide] | > 5.30 | 4.80 | 4.89
CC[C@H](C)[C@H](NC(=O)[C@@H]1CCCN1CC(=O)OC1(C)C2CC3CC(C2)CC1C3)C(=O)NCc1ccccc1 (stereo partly drawn) [Example 89, L-Isoleucine, N-[1-(2-(2-Oxy-2-Methyladamant-2-yl)-2-Oxoethyl)-L-Prolyl] Benzylamide] | 6.92 | 5.10 | 5.30
CC[C@H](C)[C@H](NC(=O)[C@@H]1CCCN1CC(=O)NCC12CC3CC(CC(C3)C1)C2)C(=O)NCc1ccccc1 [Example 91, L-Isoleucine, N-[1-(Adamant-1-ylmethylcarbamoylmethyl)-L-Prolyl] Benzylamide] | > 5.30 | 5.40 | 4.59
CC[C@H](C)[C@H](NC(=O)[C@@H]1CCCN1CC(=O)C1CCC(C(C)(C)C)CC1)C(=O)NCc1ccccc1 (stereo partly drawn) [Example 96, L-Isoleucine, N-[1-(2-(4-tert-Butylcyclohexyl)-2-Oxoethyl)-L-Prolyl] Benzylamide] | > 5.30 | 5.10 | 4.62
CC[C@H](C)[C@H](NC(=O)[C@@H]1CCCN1CC(=O)C1CC2CCC1C2)C(=O)NCc1ccccc1 (stereo partly drawn) [Example 97] | > 5.30 | 4.92 | 4.49
CC[C@H](C)[C@H](NC(=O)[C@@H]1CCCN1CC(=O)c1cc(OC)c(OC)c(OC)c1)C(=O)NCc1ccccc1 [Example 98, L-Isoleucine, N-[1-(2-(3,4,5-Trimethoxyphenyl)-2-Oxoethyl)-L-Prolyl] Benzylamide] | > 5.30 | 5.15 | < 4.48
